Assay [1] concerns the target T1, CFTR channel in human colonic T84 cells (Homo sapiens, UniProt P13569).
T1 construct: host or cells: T84 human colonic cells
As to the kind of experiment: T84 assay (FLIPR membrane potential dye, forskolin/IBMX-stimulated). Format: cell-based. The following applies: average of at least 2 runs unless marked n = 1. On the procedure: For example, Human colonic T84 cells can be acquired from the European Collection of Cell Cultures (ECACC) and grown in standard culture conditions as described by the supplier. On the day before assay 25,000 T84 cells per well are plated into standard black walled, clear bottom 384-well assay plates in standard growth medium consisting of DMEM:F12 with 10% FBS and incubated overnight. […] T84 cells are incubated with the FLIPR Red membrane potential dye for 45 minutes in the presence and absence of test compound before being transferred to a commercially available fluorescence imaging plate reader (FLIPR384, Molecular Devices Corporation). Fluorescence levels are monitored continuously every second for 150 seconds; after an initial 10 second baseline, CFTR channel activity is stimulated through the addition of 10 μM forskolin in the presence of 100 μM of the phosphodiesterase inhibitor iso-butyl-methylxanthine (IBMX). […] CFTR channel opening causes chloride ion efflux and subsequent depolarization of the cells, which is measured by an increase in fluorescence. CFTR inhibitor compounds prevent cell depolarization and the associated increase in fluorescence. […]

For assay [2], the system named is cholera toxin (CTX)-induced net fluid secretion in small intestine loops. Also noted: species or system mice (CD1 strain). The following applies: mouse, in vivo.

The record followed here is patent US20110237528A1, “COMPOSITIONS AND METHODS COMPRISING IMIDAZOLE AND TRIAZOLE DERIVATIVES” (INSTITUTE FOR ONEWORLD HEALTH, priority 2008, published 2011).

T1 sequence (P13569 whole entry): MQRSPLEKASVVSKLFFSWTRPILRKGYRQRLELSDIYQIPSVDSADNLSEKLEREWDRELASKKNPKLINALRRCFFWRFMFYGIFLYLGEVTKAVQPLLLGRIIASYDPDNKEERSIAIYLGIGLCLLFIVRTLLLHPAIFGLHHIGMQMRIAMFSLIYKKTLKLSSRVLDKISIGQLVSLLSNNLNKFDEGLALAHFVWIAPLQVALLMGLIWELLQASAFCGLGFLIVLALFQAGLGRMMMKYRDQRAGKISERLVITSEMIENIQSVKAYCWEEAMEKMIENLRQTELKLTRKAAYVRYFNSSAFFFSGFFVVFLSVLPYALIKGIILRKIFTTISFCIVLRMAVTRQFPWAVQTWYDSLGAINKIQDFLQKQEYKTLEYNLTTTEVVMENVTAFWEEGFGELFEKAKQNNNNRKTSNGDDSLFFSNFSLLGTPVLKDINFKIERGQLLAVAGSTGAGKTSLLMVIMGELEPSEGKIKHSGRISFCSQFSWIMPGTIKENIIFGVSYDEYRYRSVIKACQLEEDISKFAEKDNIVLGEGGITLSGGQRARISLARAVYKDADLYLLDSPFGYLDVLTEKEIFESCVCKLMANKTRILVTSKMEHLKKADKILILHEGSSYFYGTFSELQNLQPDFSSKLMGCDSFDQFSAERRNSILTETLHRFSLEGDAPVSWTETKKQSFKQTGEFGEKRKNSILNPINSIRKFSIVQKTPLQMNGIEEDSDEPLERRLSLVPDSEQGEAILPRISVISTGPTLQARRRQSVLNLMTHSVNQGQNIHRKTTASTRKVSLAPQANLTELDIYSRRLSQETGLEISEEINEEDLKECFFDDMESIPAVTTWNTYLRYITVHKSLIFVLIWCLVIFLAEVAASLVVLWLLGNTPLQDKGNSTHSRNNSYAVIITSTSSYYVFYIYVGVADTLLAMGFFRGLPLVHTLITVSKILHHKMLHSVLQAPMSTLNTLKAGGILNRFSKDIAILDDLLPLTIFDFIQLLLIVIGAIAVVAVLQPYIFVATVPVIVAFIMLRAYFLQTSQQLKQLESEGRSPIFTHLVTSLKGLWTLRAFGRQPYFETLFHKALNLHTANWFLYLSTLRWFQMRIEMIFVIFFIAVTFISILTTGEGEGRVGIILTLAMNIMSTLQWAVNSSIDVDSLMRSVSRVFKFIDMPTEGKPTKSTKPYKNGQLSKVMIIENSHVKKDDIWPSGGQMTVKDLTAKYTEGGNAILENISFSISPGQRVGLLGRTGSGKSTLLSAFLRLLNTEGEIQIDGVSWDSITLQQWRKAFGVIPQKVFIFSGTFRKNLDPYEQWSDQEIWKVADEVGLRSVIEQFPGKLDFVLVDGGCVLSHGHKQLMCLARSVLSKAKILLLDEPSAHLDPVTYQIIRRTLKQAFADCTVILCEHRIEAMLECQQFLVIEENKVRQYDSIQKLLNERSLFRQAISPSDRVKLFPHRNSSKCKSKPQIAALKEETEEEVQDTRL

Usually IC50 stands for the concentration that inhibits the measured activity by half. The low end stands for inhibition by little substance, the high end for a need for much substance. On to `O=C(NCc1ccc(Oc2cc(C(F)(F)F)cc(C(F)(F)F)c2)cc1)c1ncn(-c2cc(Cl)c(O)c(Cl)c2)n1` [Compound 62, N-(4-(3,5-bis(trifluoromethyl)phenoxy)benzyl)-1-(3,5-dichloro-4-hydroxyphenyl)-1H-1,2,4-triazole-3-carboxamide], for which, in assay [1], the IC50 was at least 50 µM.
For `CN(C)c1cccc(Oc2ccc(CNC(=O)c3ncn(-c4cc(Cl)c(O)c(Cl)c4)n3)cc2)c1` [Compound 64, 1-(3,5-dichloro-4-hydroxyphenyl)-N-(4-(3-(dimethylamino)phenoxy)benzyl)-1H-1,2,4-triazole-3-carboxamide], in assay [1], the IC50 was at least 50 µM.
`O=C(NCc1ccc(Oc2ccc(F)c(C(F)(F)F)c2)cc1)c1ncn(-c2cc(Cl)c(O)c(Cl)c2)n1` [Compound 67, 1-(3,5-dichloro-4-hydroxyphenyl)-N-(4-(4-fluoro-3-(trifluoromethyl)phenoxy)benzyl)-1H-1,2,4-triazole-3-carboxamide]: in assay [2], the “% inhibition @ 100 μg dose (closed loop % inhibition)” value is 88.2%.
On the same count and under the same terms, in the case of `CC(C)c1ccc(CC(NC(=O)c2ncn(-c3cc(Cl)c(O)c(Cl)c3)n2)C(=O)C(C)(C)C)cc1` (stereo not shown) [Compound 134, 1-(3,5-dichloro-4-hydroxyphenyl)-N-(1-(4-isopropylphenyl)-4,4-dimethyl-3-oxopentan-2-yl)-1H-1,2,4-triazole-3-carboxamide] it was 71.7%.
